Calls of active or inactive are those of the source.
Legend:
[1] = target: Bifunctional protein GlmU (Mycobacterium tuberculosis, UniProt P9WMN3); test: Inhibitors of Mycobacterial Glucosamine-1-phosphate acetyl transferase (GlmU). Secondary screen.; set-up: species or system Mycobacterium tuberculosis H37Rv
[2] = target: T1, Aminopeptidase N (Plasmodium falciparum FcB1/Columbia, UniProt O96935); test: P. falciparum M1AAP inhibitors, biochemical, fluorogenic H-Leu-NHMec substrate, 1536-well (AID 1445); set-up: species or system Plasmodium falciparum 3D7, 3D7
T1 sequence (O96935 whole entry): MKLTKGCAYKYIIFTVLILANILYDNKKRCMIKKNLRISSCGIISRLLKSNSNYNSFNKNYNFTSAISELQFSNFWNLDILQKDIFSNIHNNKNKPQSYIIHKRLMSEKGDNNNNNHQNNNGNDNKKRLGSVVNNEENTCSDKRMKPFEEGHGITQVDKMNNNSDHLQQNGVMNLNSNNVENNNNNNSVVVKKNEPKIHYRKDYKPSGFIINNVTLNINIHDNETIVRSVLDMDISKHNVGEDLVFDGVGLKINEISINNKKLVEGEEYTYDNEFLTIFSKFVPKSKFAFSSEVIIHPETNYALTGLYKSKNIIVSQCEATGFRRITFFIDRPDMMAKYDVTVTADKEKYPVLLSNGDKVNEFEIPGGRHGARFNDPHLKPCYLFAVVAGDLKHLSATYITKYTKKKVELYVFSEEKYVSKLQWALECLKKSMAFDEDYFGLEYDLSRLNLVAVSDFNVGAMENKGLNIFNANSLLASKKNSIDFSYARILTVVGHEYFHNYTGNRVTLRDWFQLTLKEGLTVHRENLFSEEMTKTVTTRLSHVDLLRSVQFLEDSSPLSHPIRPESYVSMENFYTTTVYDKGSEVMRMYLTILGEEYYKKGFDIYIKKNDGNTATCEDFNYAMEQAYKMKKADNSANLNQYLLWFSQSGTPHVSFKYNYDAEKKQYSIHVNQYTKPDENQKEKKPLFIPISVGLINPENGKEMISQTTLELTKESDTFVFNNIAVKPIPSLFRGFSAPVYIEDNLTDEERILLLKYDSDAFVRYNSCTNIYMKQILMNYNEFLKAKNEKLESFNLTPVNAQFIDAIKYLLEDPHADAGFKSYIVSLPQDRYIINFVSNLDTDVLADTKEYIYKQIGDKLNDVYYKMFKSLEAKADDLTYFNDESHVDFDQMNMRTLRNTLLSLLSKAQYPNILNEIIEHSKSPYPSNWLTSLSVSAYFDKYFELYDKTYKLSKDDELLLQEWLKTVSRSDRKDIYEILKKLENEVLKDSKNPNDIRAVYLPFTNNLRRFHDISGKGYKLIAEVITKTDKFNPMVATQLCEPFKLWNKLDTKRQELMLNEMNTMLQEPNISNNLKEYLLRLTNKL

[3] = inhibitors of Bluetongue virus cytopathic effect, confirmation, arbovirus, BSR cells (AID 1250); type: functional;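 further: protection from viral cytopathic effect measured as cell viability by ATP luminescence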
[4] = target: T2, Histone-lysine N-methyltransferase NSD2 (Homo sapiens, UniProt O96028); type: biochemical
T2 sequence (O96028 whole entry): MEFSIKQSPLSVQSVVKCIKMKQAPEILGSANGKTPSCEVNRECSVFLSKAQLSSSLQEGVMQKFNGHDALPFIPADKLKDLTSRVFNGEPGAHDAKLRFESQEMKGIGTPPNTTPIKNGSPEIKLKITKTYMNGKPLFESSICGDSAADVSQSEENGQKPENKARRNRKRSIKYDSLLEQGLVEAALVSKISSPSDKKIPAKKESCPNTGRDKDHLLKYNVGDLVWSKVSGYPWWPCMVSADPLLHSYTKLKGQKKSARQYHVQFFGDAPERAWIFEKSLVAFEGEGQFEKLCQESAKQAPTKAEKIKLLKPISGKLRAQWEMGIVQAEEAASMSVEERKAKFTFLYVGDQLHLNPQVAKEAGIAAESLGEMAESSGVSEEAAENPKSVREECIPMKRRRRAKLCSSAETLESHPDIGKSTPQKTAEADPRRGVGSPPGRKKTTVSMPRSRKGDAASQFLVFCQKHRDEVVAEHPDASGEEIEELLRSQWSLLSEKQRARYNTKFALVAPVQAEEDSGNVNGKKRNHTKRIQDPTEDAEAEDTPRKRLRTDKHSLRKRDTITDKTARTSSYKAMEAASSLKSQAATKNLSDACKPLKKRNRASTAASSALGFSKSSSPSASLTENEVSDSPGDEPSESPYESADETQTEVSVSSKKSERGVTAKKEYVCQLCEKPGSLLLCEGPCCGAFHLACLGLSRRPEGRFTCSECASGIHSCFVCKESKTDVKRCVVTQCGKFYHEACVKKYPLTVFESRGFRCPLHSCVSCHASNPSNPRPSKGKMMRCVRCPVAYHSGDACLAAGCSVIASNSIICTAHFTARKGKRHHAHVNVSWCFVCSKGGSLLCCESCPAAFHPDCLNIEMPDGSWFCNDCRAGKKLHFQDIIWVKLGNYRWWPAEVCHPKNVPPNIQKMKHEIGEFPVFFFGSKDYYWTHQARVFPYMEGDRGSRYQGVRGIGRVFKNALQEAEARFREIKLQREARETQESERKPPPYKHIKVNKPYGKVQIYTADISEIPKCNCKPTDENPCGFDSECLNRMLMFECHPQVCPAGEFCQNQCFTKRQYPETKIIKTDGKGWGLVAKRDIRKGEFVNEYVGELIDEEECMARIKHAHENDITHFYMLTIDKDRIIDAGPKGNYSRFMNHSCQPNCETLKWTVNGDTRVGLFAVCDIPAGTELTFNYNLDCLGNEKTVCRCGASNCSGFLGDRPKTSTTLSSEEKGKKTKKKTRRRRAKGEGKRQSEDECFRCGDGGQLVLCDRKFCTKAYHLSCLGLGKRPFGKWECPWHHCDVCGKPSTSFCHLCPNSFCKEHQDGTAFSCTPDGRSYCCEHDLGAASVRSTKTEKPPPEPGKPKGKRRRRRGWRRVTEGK

[5] = target: T3, Hexokinase HKDC1 (Homo sapiens, UniProt Q2TB90); test: HKDC1 hexokinase inhibitors, dose response, biochemical, W721R variant (AID 504729); type: functional
T3 sequence (Q2TB90 whole entry): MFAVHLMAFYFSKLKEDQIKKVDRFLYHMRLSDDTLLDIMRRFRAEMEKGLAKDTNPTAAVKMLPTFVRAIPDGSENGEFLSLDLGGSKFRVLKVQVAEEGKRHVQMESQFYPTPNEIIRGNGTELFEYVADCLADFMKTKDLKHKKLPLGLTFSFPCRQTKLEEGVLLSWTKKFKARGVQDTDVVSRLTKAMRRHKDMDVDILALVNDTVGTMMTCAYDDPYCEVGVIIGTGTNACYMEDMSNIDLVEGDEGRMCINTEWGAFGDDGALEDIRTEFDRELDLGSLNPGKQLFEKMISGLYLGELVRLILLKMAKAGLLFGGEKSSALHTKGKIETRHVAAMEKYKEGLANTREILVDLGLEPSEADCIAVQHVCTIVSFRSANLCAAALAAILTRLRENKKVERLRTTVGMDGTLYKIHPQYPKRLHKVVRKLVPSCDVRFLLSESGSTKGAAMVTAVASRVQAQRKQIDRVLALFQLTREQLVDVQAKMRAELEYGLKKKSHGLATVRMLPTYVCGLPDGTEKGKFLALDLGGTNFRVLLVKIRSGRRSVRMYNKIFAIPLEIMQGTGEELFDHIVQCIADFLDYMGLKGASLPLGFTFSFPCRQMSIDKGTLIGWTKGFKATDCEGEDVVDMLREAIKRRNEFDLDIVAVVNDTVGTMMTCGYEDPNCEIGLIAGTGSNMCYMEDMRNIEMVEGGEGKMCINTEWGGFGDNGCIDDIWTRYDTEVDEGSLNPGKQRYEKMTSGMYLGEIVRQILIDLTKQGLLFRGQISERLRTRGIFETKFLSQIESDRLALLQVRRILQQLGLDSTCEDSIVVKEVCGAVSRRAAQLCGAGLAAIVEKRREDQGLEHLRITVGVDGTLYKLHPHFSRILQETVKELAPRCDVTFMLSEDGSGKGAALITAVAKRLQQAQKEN

[6] = target: Mitogen-activated protein kinase 10 (Homo sapiens, UniProt P53779); test: Dose response biochemical screening assay for inhibitors of c-Jun N-Terminal Kinase 3 (JNK3). [Related pubchem assays: 746 ]
Sequence of Mitogen-activated protein kinase 10 (P53779 whole entry): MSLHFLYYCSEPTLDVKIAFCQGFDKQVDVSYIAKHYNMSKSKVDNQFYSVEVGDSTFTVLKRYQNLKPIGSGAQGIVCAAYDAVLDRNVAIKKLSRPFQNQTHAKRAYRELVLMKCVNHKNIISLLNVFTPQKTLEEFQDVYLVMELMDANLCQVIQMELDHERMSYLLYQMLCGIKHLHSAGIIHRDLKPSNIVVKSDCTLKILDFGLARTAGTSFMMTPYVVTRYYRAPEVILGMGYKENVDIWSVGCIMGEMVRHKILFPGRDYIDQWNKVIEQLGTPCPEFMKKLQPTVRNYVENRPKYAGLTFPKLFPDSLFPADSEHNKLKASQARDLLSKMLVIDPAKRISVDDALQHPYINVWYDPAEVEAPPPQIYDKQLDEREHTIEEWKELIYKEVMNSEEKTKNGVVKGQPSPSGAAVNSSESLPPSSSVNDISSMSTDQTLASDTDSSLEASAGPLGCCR

[7] = target: Sphingosine 1-phosphate receptor 2 (Homo sapiens, UniProt O95136); test: Dose Response Cell Based Assay for Agonists of the S1P2 Receptor. [Related pubchem assays: 729, 736, 843 ]; type: functional
Sequence of Sphingosine 1-phosphate receptor 2 (O95136 whole entry): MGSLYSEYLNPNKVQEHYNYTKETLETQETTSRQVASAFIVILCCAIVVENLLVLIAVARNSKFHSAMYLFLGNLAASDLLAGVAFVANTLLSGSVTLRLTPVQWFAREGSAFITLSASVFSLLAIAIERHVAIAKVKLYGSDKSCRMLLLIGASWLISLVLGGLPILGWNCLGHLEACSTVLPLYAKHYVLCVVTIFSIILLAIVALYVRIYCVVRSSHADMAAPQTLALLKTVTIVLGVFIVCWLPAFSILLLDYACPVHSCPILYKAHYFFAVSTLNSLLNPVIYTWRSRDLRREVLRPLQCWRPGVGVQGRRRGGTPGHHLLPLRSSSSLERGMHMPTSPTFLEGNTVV

[8] = target: T4, Apoptotic protease-activating factor 1 (Homo sapiens, UniProt O14727); type: functional
T4 sequence (O14727 whole entry): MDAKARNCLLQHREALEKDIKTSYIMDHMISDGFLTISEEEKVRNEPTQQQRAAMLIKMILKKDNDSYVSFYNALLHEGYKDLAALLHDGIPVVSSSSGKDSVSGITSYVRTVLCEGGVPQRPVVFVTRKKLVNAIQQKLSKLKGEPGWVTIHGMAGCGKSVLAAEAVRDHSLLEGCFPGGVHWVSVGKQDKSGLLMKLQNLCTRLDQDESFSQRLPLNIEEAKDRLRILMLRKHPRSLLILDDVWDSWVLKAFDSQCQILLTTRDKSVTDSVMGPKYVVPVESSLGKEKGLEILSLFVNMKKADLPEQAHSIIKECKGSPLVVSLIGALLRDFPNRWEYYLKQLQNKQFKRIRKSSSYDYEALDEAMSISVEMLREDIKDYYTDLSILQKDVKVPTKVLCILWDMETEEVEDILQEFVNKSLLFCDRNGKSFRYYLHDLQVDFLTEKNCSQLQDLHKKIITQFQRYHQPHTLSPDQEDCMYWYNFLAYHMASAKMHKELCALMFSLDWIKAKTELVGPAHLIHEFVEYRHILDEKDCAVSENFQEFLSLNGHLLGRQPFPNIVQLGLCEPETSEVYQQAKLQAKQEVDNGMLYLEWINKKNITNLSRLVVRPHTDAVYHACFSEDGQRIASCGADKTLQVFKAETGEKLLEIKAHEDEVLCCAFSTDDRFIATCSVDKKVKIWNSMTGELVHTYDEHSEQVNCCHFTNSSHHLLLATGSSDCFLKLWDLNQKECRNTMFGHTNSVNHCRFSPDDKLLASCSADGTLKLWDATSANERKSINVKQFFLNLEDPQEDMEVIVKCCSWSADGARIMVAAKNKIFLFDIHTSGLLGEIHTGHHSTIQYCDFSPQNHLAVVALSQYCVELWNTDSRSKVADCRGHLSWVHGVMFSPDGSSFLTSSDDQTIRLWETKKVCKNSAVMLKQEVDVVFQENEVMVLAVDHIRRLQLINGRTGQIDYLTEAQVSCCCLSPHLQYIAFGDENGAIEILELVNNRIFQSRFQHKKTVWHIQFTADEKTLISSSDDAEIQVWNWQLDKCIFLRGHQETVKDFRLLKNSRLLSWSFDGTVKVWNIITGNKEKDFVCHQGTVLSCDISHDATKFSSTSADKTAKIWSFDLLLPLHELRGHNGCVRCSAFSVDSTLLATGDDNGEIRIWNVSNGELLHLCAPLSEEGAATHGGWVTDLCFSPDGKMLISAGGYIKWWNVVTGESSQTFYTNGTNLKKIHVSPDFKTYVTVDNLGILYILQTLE

[9] = target: T5, Rac GTPase-activating protein 1 (Homo sapiens, UniProt Q9H0H5); test: MgcRacGAP GTPase-activating activity inhibitors, confirmation, biochemical, ADP Hunter fluorescence, primary and confirmatory (AID 624330); type: functional
T5 sequence (Q9H0H5 whole entry): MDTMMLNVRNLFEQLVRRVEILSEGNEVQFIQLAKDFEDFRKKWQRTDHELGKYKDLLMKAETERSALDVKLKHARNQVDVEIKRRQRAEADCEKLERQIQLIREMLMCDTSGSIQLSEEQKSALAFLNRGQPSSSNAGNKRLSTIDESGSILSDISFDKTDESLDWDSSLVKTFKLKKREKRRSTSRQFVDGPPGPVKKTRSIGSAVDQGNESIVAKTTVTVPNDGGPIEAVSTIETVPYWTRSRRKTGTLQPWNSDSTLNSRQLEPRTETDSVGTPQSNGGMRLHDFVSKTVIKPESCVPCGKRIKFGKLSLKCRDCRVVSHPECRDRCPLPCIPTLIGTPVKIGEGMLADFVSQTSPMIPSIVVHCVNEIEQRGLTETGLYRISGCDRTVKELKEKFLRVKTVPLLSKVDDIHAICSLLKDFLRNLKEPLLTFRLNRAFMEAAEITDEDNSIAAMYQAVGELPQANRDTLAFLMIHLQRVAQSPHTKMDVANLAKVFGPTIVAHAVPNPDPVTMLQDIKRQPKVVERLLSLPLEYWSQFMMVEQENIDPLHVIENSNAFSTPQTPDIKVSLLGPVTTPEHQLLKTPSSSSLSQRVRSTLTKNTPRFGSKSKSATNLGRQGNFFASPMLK

[10] = target: Mannose-6-phosphate isomerase (Homo sapiens, UniProt P34949); test: human PMI inhibitors, high substrate, primary screen, biochemical, fluorescence intensity, high mannose 6-phosphate (AID 1220)
Sequence of Mannose-6-phosphate isomerase (P34949 whole entry): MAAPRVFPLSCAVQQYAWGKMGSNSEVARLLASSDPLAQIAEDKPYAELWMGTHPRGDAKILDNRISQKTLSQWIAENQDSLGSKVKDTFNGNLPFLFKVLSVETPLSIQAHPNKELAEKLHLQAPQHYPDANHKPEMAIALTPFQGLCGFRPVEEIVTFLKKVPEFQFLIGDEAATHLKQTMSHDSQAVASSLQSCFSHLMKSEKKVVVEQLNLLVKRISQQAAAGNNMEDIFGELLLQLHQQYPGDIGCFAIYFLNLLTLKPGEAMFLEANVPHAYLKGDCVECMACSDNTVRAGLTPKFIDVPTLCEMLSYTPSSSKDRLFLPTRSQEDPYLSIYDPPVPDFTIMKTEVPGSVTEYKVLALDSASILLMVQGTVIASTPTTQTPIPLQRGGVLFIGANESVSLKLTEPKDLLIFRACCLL

[11] = target: T6, Low molecular weight phosphotyrosine protein phosphatase (Homo sapiens, UniProt P24666); test: LMPTP phosphatase inhibitors, dose response, biochemical, OMFP substrate, fluorescence intensity, set 2 (AID 743307); type: functional
T6 sequence (P24666 whole entry): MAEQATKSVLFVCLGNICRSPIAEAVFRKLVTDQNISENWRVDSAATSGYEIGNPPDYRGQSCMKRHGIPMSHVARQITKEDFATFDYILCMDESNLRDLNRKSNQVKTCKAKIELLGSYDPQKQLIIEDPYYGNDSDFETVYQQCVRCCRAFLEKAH

[12] = target: T6, Low molecular weight phosphotyrosine protein phosphatase; test: LMPTP phosphatase inhibitors, colorimetric pNPP readout, dose response, orthogonal assay, biochemical, absorbance, pNPP substrate, LMPTP-A isoform, set 2 (AID 743308); type: functional

Sequence of Bifunctional protein GlmU (P9WMN3 whole entry): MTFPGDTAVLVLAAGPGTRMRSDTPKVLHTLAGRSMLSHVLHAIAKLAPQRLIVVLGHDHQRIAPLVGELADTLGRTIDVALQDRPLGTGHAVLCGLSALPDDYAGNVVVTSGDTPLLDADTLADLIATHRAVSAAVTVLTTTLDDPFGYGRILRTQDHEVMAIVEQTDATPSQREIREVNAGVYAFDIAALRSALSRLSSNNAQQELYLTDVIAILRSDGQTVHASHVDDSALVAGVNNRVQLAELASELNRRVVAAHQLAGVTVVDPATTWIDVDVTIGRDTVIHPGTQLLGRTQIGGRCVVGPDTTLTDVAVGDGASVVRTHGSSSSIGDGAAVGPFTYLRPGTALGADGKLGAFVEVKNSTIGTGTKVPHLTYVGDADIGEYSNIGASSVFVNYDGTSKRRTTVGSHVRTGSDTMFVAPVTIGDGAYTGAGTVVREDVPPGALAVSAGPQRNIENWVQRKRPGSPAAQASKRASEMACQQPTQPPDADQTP

Question: Which IC50 [1] does the source give for `COc1cc(/C=C(\C#N)c2nc3cc(C)ccc3[nH]2)cc([N+](=O)[O-])c1O` here?
Answer: Its IC50 is 94.3 µM (active).

Question: And the IC50 [2]?
Answer: The IC50 was 16.2 µM (active).

Question: What about the IC50 [3] of the same compound?
Answer: Its IC50 is 24.5 µM (active).

Question: What about the AC50 [4] of the same compound?
Answer: Its AC50 is > 20 µM (inactive).

Question: What about the IC50 [5] of the same compound?
Answer: Its IC50 is 16.1 µM (active).

Question: Which IC50 [6] does the source give for `Cc1nn(C)cc1CNC(=O)c1cnn2c(C(F)F)cc(C3CC3)nc12` here?
Answer: Its IC50 is 26.8 µM (not active).

Question: Which EC50 [7] does the source give for `COC(=O)c1c[nH]nc1N=C(S)Nc1ccccc1C` here?
Answer: Its EC50 is > 50 µM (not active).

Question: With `CC1(C)CNc2cc(N)ccc2S1` as the compound, how does the IC50 [8] read?
Answer: The IC50 was 7.45 µM (active).

Question: What about the IC50 [9] of the same compound?
Answer: Its IC50 is 22.9 µM (active).

Question: What about the IC50 [10] of the same compound?
Answer: The IC50 was > 50 µM (not active).

Question: Which results are given for `CCN(CC)c1nc(-c2ccccc2)nc2ccccc12`?
Answer: IC50 [11]: 53.1 µM (inactive); IC50 [12]: > 80 µM (inactive)

Reference: ChEMBL document CHEMBL1201862, “PubChem BioAssay data set” (2004)
